Data: patent publication US20220331322A1, “COMPOUND FOR INHIBITING CELL DEATH” (Christian-Albrechts-Universität zu Kiel, priority 2019, published 2022)

Tests used:
L929 cells [1] = assay: Time profile of blocking TZ-induced necroptosis, FACS (7-AAD/Annexin V); type: cell-based, murine; conditions: L929, 10 ng/ml TNF-α + 25 μM zVAD (TZ), 24 h; primidone 1 mM, Nec-1s 25 μM; one representative experiment of three
Protocol: The time profile of primidone for blocking cell death was compared to the one of Nec-1s. For this purpose, murine L929 cells were stimulated at 37° C. for 24 h with 10 ng/ml TNF-α+25 μM zVAD (TZ) in the presence of 1 mM primidone and 25 μM Nec-1s, respectively, for the indicated durations. Nec-1s and primidone were added 30 min before, 60 min and 180 min after the induction of RIPK1-mediated necroptosis, respectively. Cell death was quantified by FACS analysis using 7-amino-actinomycin D and phosphatidylserine accessibility (Annexin V staining) as markers.

L929 cells [2] = assay: Stimulation assay: TNF-α + 5Z-7 (± zVAD) induced RIPK1-dependent apoptosis/necroptosis; type: cell-based, murine; conditions: primidone 1 mM, Nec-1s 20 μM
Protocol: Murine fibroblasts (L929 cells) were stimulated for 24 h at 37° C. in the presence of (a) vehicle, (b) 10 ng/ml tumor necrosis factor alpha (TNF-α), (c) 1 μM 5Z-7-oxozeaenol (5Z-7), (d) a combination of 10 ng/ml TNF-α and 1 μM 5Z-7, (e) a combination of 10 ng/ml TNF-α, 1 μM 5Z-7, and 20 μM necrostatin-1 (Nec-1s), (f) a combination of 10 ng/ml TNF-α, 1 μM 5Z-7, and 1 mM primidone (primidone is referred to in the Figures as compound A), (g) a combination of 10 ng/ml TNF-α, 1 μM 5Z-7, and 25 μM zVAD, (h) a combination of 10 ng/ml TNF-α, 1 μM 5Z-7, and 20 μM Nec-1s, and (i) a combination of 10 ng/ml TNF-α, 1 μM 5Z-7, 25 μM zVAD, and 1 mM primidone. TNF-α is a pro-inflammatory cytokine which triggers cell survival (canonical pathway) or cell death, depending on the cellular context. 5Z-7-oxozeaenol (5Z-7) is an inhibitor of transforming growth factor activated kinase 1 (TAK1). TAK1 is an intermediate in the signaling pathway of the TNF-receptor type 1 (TNFR1), and it is known that TAK1 is essential for the prevention of TNF-induced cell death. Cells in which TAK1 is disrupted or otherwise blocked are hypersensitive to TNF-α-induced cell death due to diminished prosurvival pathways including NF-κB and reduced antioxidant enzymes which results in activation of caspases. The compound zVAD is a pan-caspase inhibitor.

RIPK1 [3] = assay: RIPK1 phosphorylation (Ser166) western blot after TSZ; type: cell-based, human; conditions: U937, TSZ, 1 mM primidone
Protocol: It was tested whether primidone interferes with binding of TNF-α to its corresponding receptor TNFR1. To induce cell death, human U937 cells were treated in the absence (vehicle) or presence of 1 mM primidone with 100 ng/ml Fc-tagged TNF-α+1 μM SMAC mimetic SM164+25 μM zVAD (TSZ) for different time periods, followed by immunopurification of the immunoprecipitated TNF-α-induced complex I using μMACS™ protein A/G microbeads, and western blot analysis using a specific RIPK1 antibody.
It was then analyzed if the previously immunoprecipitated RIPK1 is activated by phosphorylation. For this purpose, the Western Blot shown before (FIG. 5) was “stripped” by chemically removing all reagents from the blot and re-developed with an antibody that only detects RIPK1 in its activate (i.e. phosphorylated) form.

RIPK1 [4] = target: T1, RIPK1 (Homo sapiens, UniProt Q13546); assay: KINOMEscan profiling kinase assay
T1 sequence (Q13546 1-671): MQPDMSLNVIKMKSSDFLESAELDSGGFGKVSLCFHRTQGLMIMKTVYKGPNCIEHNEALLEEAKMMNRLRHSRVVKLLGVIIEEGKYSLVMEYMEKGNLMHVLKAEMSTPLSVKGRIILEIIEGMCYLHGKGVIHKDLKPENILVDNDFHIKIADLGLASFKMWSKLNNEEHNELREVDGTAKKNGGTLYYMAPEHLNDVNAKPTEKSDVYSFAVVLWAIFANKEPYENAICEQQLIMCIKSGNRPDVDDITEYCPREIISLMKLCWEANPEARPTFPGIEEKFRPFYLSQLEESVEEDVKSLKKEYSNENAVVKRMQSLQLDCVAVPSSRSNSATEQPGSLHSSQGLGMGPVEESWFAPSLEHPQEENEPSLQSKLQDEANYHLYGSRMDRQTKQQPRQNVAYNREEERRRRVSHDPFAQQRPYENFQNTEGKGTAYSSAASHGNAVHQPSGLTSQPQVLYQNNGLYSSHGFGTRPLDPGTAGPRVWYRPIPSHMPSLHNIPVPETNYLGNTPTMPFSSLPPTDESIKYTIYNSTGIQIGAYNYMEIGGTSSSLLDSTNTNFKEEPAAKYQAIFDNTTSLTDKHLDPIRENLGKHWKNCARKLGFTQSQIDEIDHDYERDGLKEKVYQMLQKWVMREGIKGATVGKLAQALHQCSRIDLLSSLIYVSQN
Protocol: To clarify, a KINOMEscan™ profiling kinase assay was performed. […] Dissociation constants (Kd) for test compound-kinase interactions are calculated by measuring the amount of kinase captured on the solid support as a function of the test compound concentration.

SMILES: CCC1(c2ccccc2)C(=O)NCNC1=O [primidone, 5-Ethyl-5-phenyl-1,3-diazinane-4,6-dione]
- Cells still alive, compound added 60 min after induction of cell death (L929 cells [1]): 92.7%
- Cells still alive, compound added 3 hours after induction of cell death (L929 cells [1]): 58.6%
- Block of RIPK1-dependent necroptosis (L929 cells [2]; L929, 10 ng/ml TNF-α + 1 μM 5Z-7 + 25 μM zVAD, 24 h): able to block
- Block of RIPK1-dependent apoptosis (RDA) (L929 cells [2]; L929, 10 ng/ml TNF-α + 1 μM 5Z-7, 24 h, zVAD 25 μM): could also be blocked
- Activation (phosphorylation) of RIPK1 at residue Ser166 (RIPK1 [3]): completely blocked
- Binding to RIPK1 kinase domain (prevention of kinase binding to immobilized ligand) (RIPK1 [4]): does not inhibit RIPK1 by binding directly to its kinase domain
